“Also recorded” adds a separate entry of the source.
Tests used:
[1] = Toxicity and body weight in xenograph mice (enzyme panel, body weight); assay type: in vivo
Procedure: (§1) FIGS. 5A-5C. In-vivo TOV21G xenographs treated with 1×DPBS (vehicle, N=6) and 20 mg/kg ζ-Stat (N=6) for 30 days. (FIG. 5A) Tumor growth (mm^3) for the control mice and the treatment mice. The graph at the bottom represents the average body weight of the mice throughout the treatment period. (FIG. 5B) Tumors extracted at the endpoint of the experiment. The graph below represents the size of tumors from the treatment group represented as the percentage of the control. (FIG. 5C) Enzyme panel tested after the endpoint of the experiment. The bars represent glucose, BUN, ALT, AST and ALKP levels.
(§2) Effects of ζ-Stat on athymic mice ovarian xenograph were tested. Twelve athymic female nude mice weighing between 20-25 g and more than 10 weeks of age were used. The mice were divided into two groups after TOV21G cells (CRL-11730, American Type Culture Collection) were implanted (A million cells/mouse flank in 0.2 ml of media). The first group was the control group (n=6), which received 100 μl of DPBS (21-031-CM, Corning Cellgro, VA). The second group (n=6) received 100 μl of 20 mg/kg of ζ-Stat dissolved in DPBS. The tumor volume was calculated using the formula: length×width×width×½. Three days after implantation of the cells, the tumors were treated as of day 0. The treatments were administered every other day subcutaneously intra-tumor and around the tumor site for […].

TOV21G xenographs = test: TOV21G xenograph tumor growth in athymic female nude mice; assay type: in vivo; conditions: 20 mg/kg, every other day, subcutaneously intra-tumor and around the tumor site
Procedure: as §1, §2

CCOC cells = test: Wound healing / cellular invasion of CCOC cells; assay type: cell-based
Source text: (§3) Ovarian cancer is the most lethal gynecological cancer. […] The most common ovarian cancer diagnosis is epithelial ovarian carcinomas, which constitute for 85-90% of prognosis. Of epithelial ovarian carcinomas, clear cell ovarian carcinoma (CCOC) represents 5% of incidence. CCOC presents unique pathological features and has a high reoccurrence rate after treatment. An overexpression of atypical PKCs (PKC-ζ and PKC-ι/λ) has been observed in various malignant cell lines and is linked to pathways for cellular proliferation and invasion. Ovarian cell lines (TOV21G and ES-2) were treated with the atypical PKC-ζ inhibitor ζ-Stat (8-hydroxynaphthalene-1,3,6-trisulfonic acid) and assayed to determine the effects on proliferation and cellular invasion. […] Tumor growth in athymic female mice is decreased when treated with ζ-Stat and the mouse body weight is maintained. Thus, PKC-ζ is identified herein as a novel target in carcinogenesis and inhibition of this protein decreases the rate of proliferation.

PKC-ι = target: T1, PKC-ι (Homo sapiens, UniProt P41743); test: Protein expression of PKC-ι in TOV21G and ES-2 cells; assay type: cell-based; conditions: protein and genomic studies
T1 construct: endogenous in cells; host or cells: TOV21G and ES-2 cells
T1 sequence (P41743 1-596): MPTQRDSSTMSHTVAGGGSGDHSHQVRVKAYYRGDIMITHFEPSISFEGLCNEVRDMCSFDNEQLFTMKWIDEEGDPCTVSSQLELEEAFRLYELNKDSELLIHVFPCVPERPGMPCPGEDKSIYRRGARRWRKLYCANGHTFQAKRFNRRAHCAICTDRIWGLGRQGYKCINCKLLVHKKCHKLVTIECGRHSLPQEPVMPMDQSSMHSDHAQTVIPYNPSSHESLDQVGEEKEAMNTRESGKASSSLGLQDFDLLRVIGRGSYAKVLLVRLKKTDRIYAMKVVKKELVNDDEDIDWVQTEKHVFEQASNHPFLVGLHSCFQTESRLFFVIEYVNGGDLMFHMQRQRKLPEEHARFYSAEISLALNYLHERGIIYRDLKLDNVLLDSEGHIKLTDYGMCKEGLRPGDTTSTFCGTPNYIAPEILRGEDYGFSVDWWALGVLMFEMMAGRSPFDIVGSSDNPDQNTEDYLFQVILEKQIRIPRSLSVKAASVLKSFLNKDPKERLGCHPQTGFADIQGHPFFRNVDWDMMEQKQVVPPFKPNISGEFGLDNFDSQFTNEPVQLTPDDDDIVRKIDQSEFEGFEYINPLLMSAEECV
Procedure: (§4) FIGS. 3A-3B. Protein expression of […] and […] of TOV21G and ES-2 cells when treated for 24, 48, and 72 hours with DMSO, ICA-1, and ζ-Stat. (FIG. 3A) TOV21G protein expression levels with treatments and quantified N=3. (FIG. 3B) ES-2 protein expression levels with treatments and quantified N=3.

ES-2 cells = test: Proliferation of ES-2 cells treated with ζ-Stat (cellometer count, WST-1); assay type: cell-based; conditions: 24, 48 and 72 hours, control DMSO
Procedure: (§5) FIGS. 2A-2C. Proliferation curves for ES-2 cells treated with ζ-Stat. ES-2 cells were treated with ζ-Stat for 24, 48, and 72 hours. The control cells were treated with DMSO. (FIG. 2A) Treatments counted on a cellometer. (FIG. 2B) Standard curve for ES-2 cells in WST-1 reagent. (FIG. 2C) Treatments after 72 hours measured using WST-1 reagent.
as §3

TOV21G cells = test: Proliferation of TOV21G cells treated with ζ-Stat (cellometer count, WST-1); assay type: cell-based; conditions: 24, 48 and 72 hours, control DMSO
Procedure: as §5, with “1A-1C.” for “2A-2C.”, “TOV21G” for “ES-2”, “1A)” for “2A)”, “1B)” for “2B)”, “1C)” for “2C)”
as §3

RhoA = test: Protein and genomic expression of RhoA in TOV21G cells; assay type: cell-based; conditions: 72 hours
Procedure: (§6) FIGS. 4A-4B. Protein expression of PKC-ζ and RhoA of TOV21G and ES-2 cells when treated for 72 hours with DMSO and ζ-Stat and genomic expression of RhoA in TOV21G. (FIG. 4A) TOV21G and ES-2 protein expression after 72 hours of treatment. (FIG. 4B) TOV21G genomic expression of RhoA with ζ-Stat treatment after 72 hours of treatment.

PKC-ζ = target: T2, PKC-ζ (Homo sapiens, UniProt Q05513); test: Protein expression of PKC-ζ in TOV21G and ES-2 cells; assay type: cell-based; conditions: protein and genomic studies
T2 construct: Protein expression of PKC-ζ and RhoA of TOV21G and ES-2 cells when treated for 72 hours with DMSO and ζ-Stat; endogenous in cells; host or cells: TOV21G and ES-2 cells
T2 sequence (Q05513 1-592): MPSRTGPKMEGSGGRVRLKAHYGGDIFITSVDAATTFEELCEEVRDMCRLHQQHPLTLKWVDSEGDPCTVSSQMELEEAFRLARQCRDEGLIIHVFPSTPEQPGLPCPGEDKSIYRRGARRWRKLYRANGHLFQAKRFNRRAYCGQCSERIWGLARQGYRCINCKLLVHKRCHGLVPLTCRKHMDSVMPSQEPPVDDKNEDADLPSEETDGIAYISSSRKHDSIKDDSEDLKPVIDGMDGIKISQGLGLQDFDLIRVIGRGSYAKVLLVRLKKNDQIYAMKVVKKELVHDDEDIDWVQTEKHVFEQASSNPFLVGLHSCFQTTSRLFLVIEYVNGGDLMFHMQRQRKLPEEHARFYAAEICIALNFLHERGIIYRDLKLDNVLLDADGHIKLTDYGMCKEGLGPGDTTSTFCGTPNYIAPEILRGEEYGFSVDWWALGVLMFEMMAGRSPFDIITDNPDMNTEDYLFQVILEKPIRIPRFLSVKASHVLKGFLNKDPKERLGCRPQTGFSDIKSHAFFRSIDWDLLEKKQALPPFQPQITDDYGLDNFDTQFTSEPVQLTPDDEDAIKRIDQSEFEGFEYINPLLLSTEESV
Procedure: as §4, §6

With `O=S(=O)(O)c1cc(O)c2c(S(=O)(=O)O)cc(S(=O)(=O)O)cc2c1` [ζ-Stat, 8-hydroxynaphthalene-1,3,6-trisulfonic acid] the mouse body weight ([1]; athymic female mice treated with ζ-Stat) was “maintained”, the toxic effect ([1]; mice, 20 mg/kg, after 30 days of treatment) was “did not have a toxic effect” and the tumor growth (TOV21G xenographs) was “decreased; also recorded: reduced”. For the same molecule, the wound healing (CCOC cells) was “decreased wound healing”, the “expression of PKC-ι” value (PKC-ι) was “not the expression of PKC-ι” and the “proliferation of ES-2 cells” value (ES-2 cells) was “decreased”. The “proliferation of TOV21G cells” value (TOV21G cells) was “decreased”, the “expression of RhoA at the genomic level” value (RhoA) was “knocks down the expression of RhoA” and the “expression of RhoA at the protein level” value (RhoA) was “knocks down the expression of RhoA”. The “expression of PKC-ζ” value (PKC-ζ) was “knocks down the expression of PKC-ζ”.

From patent publication US20200078323A1, “METHOD OF TREATING OVARIAN CANCER USING ZETA-STAT” (University of South Florida, priority 2018, published 2020)
